Measurements from patent publication US20210330756A1, “Acetylation of Miro1” (University of South Carolina, priority 2020, published 2021).

Experiments:
[1] = tested on: axonal mitochondrial transport in DRG neurons; assay: FRAP of Mito-GFP in distal axons of DRG neurons; assay type: cell-based, rat; settings: for effect on MAG-Fc-dependent decrease in Mito-GFP recovery / mitochondrial transport: pretreatment: TubA 10 μM, Y27632 10 μM or BAPTA-AM 3 μM
Protocol: MAG or Aggrecan exposures were performed as bath application or on coated substrates. For bath application, dissociated DRGs were cultured for 48 h and treated with 25 μg/ml of MAG-Fc (R&D Systems; 538-MG), 25 μg/ml Fc control (R&D Systems; 110-HG), or 10 μg/ml of Aggrecan (Sigma-Aldrich; A1960) for 4 h. Cultures were pretreated with either Ca^2+ chelator BAPTA-AM (3 μM; Sigma-Aldrich; A1076), ROCK inhibitor Y27632 (10 μM; Sigma-Aldrich; SCM075), HDAC6 inhibitor TubA (10 μM; R&D Systems; 6270), Thapsigargin (1 μM; Sigma-Aldrich; T9033), Rho Activator II (1 μg/ml; Cytoskeleton; CNO3), or equivalent volume DMSO 30 min before MAG-Fc, Aggrecan, or controls. For substrate-bound experiments, adult DRGs were cultured on glass bottom dishes (Greiner) that were coated with 25 μg/ml Aggrecan in addition to the laminin/poly-D-lysine substrate.
Mito-KR- and Mito-GFP-expressing DRG neurons were used for FRAP analyses at 48-72 h after transfection. To evaluate mitochondrial motility in Mito-KR-expressing neurons, Mito-KR signals were photobleached using continual exposure to an argon laser set at 594 nm for 30 s (100% laser power) The bleached ROI was then monitored for recovery using an argon laser set at 580 nm every 10 s over 16 min (13% laser power). For FRAP analyses with Mito-GFP, GFP signals were photobleached in a 50 μm ROI using an argon laser set at 488 nm every 10 s for 16 min (70% laser power). The same excitation was used for post-bleach imaging to assess recovery every 10 s for 16 min. For axon shaft FRAP experiments in Mito-GFP-expressing neurons, ROIs of ˜50 μm in length (without branches) were imaged >100 μm proximal to the growth cone. Prebleach, bleach, and post-bleach sequences were the same as for Mito-GFP above. In all cases, neurons were imaged over 40 s or more to acquire baseline Mito-KR or Mito-GFP signals before photobleaching using an argon laser (580 nm at 13% power for Mito-KR and 488 nm at 31% power for Mito-GFP).
Vesicle trafficking was quantified using differential ImageJ Difference Tracker Plug-in (Andrews et al., 2010). 50-80-μm long unbranched axon segments at approximately the mid-region between growth cone and cell body were analyzed. Kymographs were generated using ImageJ Kymograph Plug-in. For analyses of axon retraction in the CALI experiment, the distance from the distal tip of the growth cone in the pre-CALI image sequence was used as the baseline (t=1 min). The distance between the growth tip at end of the post-CALI sequence and the pre-CALI baseline was measured using LAS-X software. Movement of ≥0.5 μm toward the axon shaft was counted as retracted. Fluorescence emission of the Mito-KR post-CALI was analyzed using ImageJ. For normalizing intensities across FRAP image sets, fluorescence intensity at each time point was scaled using the LAS-X FRAP module so that the residual fluorescence signal at t=0 min (post-bleach) was set at 0 and the prebleach intensity was set at 100% for each bleached ROI. For axon shaft FRAP analyses, each 50-μm bleached ROI was divided into […], and the fluorescence intensity recovery was measured as described above. EMs at 1,900× and 4,800× magnification across the crosssectional surface of each sciatic nerve were used for in vivo analyses of mitochondrial content. A minimum of 75 unmyelinated axons was analyzed for each nerve. All unmyelinated axons from each analyzed image were included for quantitative studies. The total number of mitochondria was determined in each unmyelinated axon in the field and was divided by the total number of unmyelinated axons for all subjects. […] was determined by changes in JC-1 fluorescence. JC-1 exists either as a green fluorescent monomer at depolarized membrane potentials or as an orange-red fluorescent aggregate at hyperpolarized membrane potentials. […]

Ac-histone H4 = assay: Immunoblotting for Ac-histone H4 in adult DRG neurons (HDAC specificity); assay type: cell-based, rat
Protocol: We tested for this specificity in the adult DRG neurons from above by immunoblotting. […] (A) Number of mitochondria in growth cones after exposing DRG cultures to 10 μM TubA versus vehicle (control) for 1 h is shown as average fold-change in number of mitochondria per growth cone±SEM (n=13 axons across three culture preparations; *, P≤0.05 by one-way ANOVA with Bonferroni post hoc analysis). (B) Representative EMs of Remak bundles (arrowheads) in naive Sciatic nerve and nerves after 2 h vehicle (DMSO) or TubA injection are shown. Arrows indicate mitochondria in the unmyelinated axons. Note that a Schwann cell nucleus (asterisk) is seen in the Remak bundle for DMSO image but not the other two micrographs (scale bar=3 μm). (C) Quantification of number of mitochondria per unmyelinated axon from EM images as in B is shown as average±SEM (n≥5; *****, P≤0.0001 by one-way ANOVA with Bonferroni post hoc analysis). (D-F) Quantification for indicated parameters for mitochondrial transport in sciatic nerve in vivo using tetramethylrhodamine, ethyl ester, perchlorate to visualize mitochondria is shown.
For immunoblotting, protein lysates or immunoprecipitates were denatured by boiling in Laemmli sample buffer, fractionated by SDS-PAGE, and transferred to nitrocellulose membranes. Blots were blocked for 1 h at room temperature with 5% nonfat dry milk in TBS with 0.1% Tween 20 (TBST). Primary antibodies diluted in 5% BSA in TBST were added to the membranes and incubated overnight at 4° C. with rocking. Primary antibodies consisted of rabbit anti-Myc (1:2,000; Cell Signaling; 71D10), rabbit anti-RHOT1 antibody (1:1,000; Aviva Systems Biology; ARP44817 P050), rabbit anti-HDAC6 antibody (1:2,000; Cell Signaling; 7558), rabbit anti-ERK1 (1:5,000; Abcam; ab32537), and affinity-purified custom rabbit anti-Miro1-AcK105 (1:2,500; Twiss laboratory, see above) antibodies. For the anti-Miro1-AcK105 antibody, preimmune and test-bleed sera were used at 1:1,000 dilutions to initially evaluate for specificity. After washing in TBST, blots were incubated with HRP-conjugated anti-rabbit IgG antibodies (1:5,000; Jackson Immunoresearch) diluted in blocking buffer for 1 h at room temperature. Signals were detected using ECL Prime (GE Healthcare) after extensive washing.

SMILES: CC(=O)OCOC(=O)CN(CC(=O)OCOC(C)=O)c1ccccc1OCCOc1ccccc1N(CC(=O)OCOC(C)=O)CC(=O)OCOC(C)=O [BAPTA-AM]
- basal Mito-GFP FRAP recovery after the first 5 min ([1]; 3 μM): no different than recovery in untreated cultures
- basal Mito-GFP FRAP recovery in distal axons, first 5 min after bleach ([1]; 3 μM): increased recovery
- effect on decrease in axonal mitochondrial transport seen upon direct activation of RhoA ([1]; 3 μM BAPTA-AM + 1 μg/ml Rho activator, 960 s after bleach): completely abrogated the decrease in axonal mitochondrial transport
- additive or synergistic effect when combined with 10 μM TubA ([1]; MAG-Fc, Mito-GFP FRAP): No significant additive effects
- effect on MAG-Fc-dependent decrease in Mito-GFP recovery / mitochondrial transport ([1]; 960 s after bleach): prevented the MAG-Fc attenuation of axonal mitochondrial transport

SMILES: O=C(CCCN1C(=O)c2cccc3cccc(c23)C1=O)NO [Nullscript]
- Ac-histone H4 levels (Ac-histone H4; 6.3 μM): no change in Ac-histone H4 levels

SMILES: O=C(CCCCCN1C(=O)c2cccc3cccc(c23)C1=O)NO [Scriptaid]
- Ac-histone H4 levels (Ac-histone H4; Scriptaid, concentration not given): clear increase in Ac-histone H4 levels

SMILES: C[C@@H](N)[C@H]1CC[C@H](C(=O)Nc2ccncc2)CC1 [Y27632]
- additive or synergistic effect when combined with 3 μM BAPTA-AM ([1]; MAG-Fc, Mito-GFP FRAP): no additive or synergistic effect
- additive or synergistic effect when combined with 10 μM TubA ([1]; MAG-Fc, Mito-GFP FRAP): no additive or synergistic effect
- additive effect when combined with 10 μM TubA ([1]; aggrecan 10 μg/ml, Mito-GFP FRAP): no significant additive effects
- effect on aggrecan-dependent decrease in Mito-GFP recovery ([1]; aggrecan 10 μg/ml, TubA 10 μM or Y27632 10 μM): prevented the aggrecan dependent decrease in Mito-GFP recovery
- effect on MAG-Fc-dependent decrease in Mito-GFP recovery / mitochondrial transport ([1]; 960 s after bleach): similarly blocked the decline in mitochondrial transport
- effect on MAG-Fc-dependent decrease in Mito-GFP recovery / mitochondrial transport ([1]; 960 s after bleach, listed as ROCK inhibitor): similarly prevented the MAG-dependent decrease in mitochondrial transport
